Converted amounts (≈) assume the structure as drawn. Like-named read-outs stand apart in the source and are kept apart here.
Experiments:
[1] = Hygroscopicity test by dynamic moisture absorption (DVS); format: physicochemical
Experimental: Dynamic moisture adsorption (DVS) analysis: the instrument is a DVS Intrinsic produced by SMS company (Surface Measurement Systems); temperature, 25° C.; carrier gas, flow rate: nitrogen, 200 ml/min; mass change per unit time: 0.002%/min: relative humidity range: 0/oRH-95% RH.
Dynamic moisture absorption (DVS) was used to test their hygroscopicity.

[2] = Experimental: In the experiment, the initial dosage of crystal form A of the hydrochloride salt in H2O, SGF, and FaSSIF was about 20 mg/mL, and the initial dosage in FeSSIF was about 40 mg/mL. […] The samples were sealed and mounted on a rotating disk rotating at 25 rpm, and the rotating disk was placed in a 37° C. incubator. Samples were taken at time points 1, 4 and 24 hours of equilibration, and the filtrate was separated and tested concentration by HPLC.
[3] = 24 hours
Experimental: The crystal form A of the hydrochloride salt of the compound of formula Ic-1 was tested for equilibrium solubility in water for 24 hours at room temperature. The form A was dosed with about 300 mg/mL solid feed, and magnetic stirred (750 rpm) in water for 24 hours to obtain a suspension. After centrifugation, the supernatant was filtered through a 0.22-μm PTFE membrane and then tested by HPLC, and the obtained solid was tested by XRPD.

## CNCC[C@@H](Oc1cccc2ccoc12)c1cccs1 [Form A]
[1]
  change in crystal form (XRPD) before and after the DVS test: no change in crystal form was observed
[2]; FaSSIF pH 6.5, 37° C., 1 hour
  solubility: 20.2 mg/mL (≈ 70.3 mM)
[2]; FaSSIF pH 6.5, 37° C., 4 hours
  solubility: 20.7 mg/mL (≈ 72 mM)
[2]; FaSSIF pH 6.5, 37° C., 24 hours
  solubility: 20.8 mg/mL (≈ 72.4 mM)
[2]; FeSSIF pH 5.0, 37° C., 1 hour
  solubility: 32.8 mg/mL (≈ 114 mM)
[2]; FeSSIF pH 5.0, 37° C., 4 hours
  solubility: 36.8 mg/mL (≈ 128 mM)
[2]; FeSSIF pH 5.0, 37° C., 24 hours
  solubility: 39.4 mg/mL (≈ 137 mM)
[2]; SGF pH 1.9, 37° C., 1 hour
  solubility: 16.5 mg/mL (≈ 57.4 mM)
[2]; SGF pH 1.9, 37° C., 4 hours
  solubility: 14.8 mg/mL (≈ 51.5 mM)
[2]; SGF pH 1.9, 37° C., 24 hours
  solubility: 11.1 mg/mL (≈ 38.6 mM)
[2]; Water, 37° C., 1 hour
  solubility: 16.7 mg/mL (≈ 58.1 mM)
[2]; Water, 37° C., 4 hours
  solubility: 17.7 mg/mL (≈ 61.6 mM)
[2]; Water, 37° C., 24 hours
  solubility: 17.3 mg/mL (≈ 60.2 mM)
[3]; room temperature
  solubility in water (concentration of free state): 21 ± 0.5 mg/mL
  solubility in water converted to hydrochloride concentration: 237.3 mg/mL (≈ 826 mM)
[3]; water
  solid crystal form after the equilibrium solubility test (XRPD): solid crystal form did not change

— patent publication US12492195B2, “Preparation method for and crystal form of 3-aryloxy-3-five-membered heteroaryl-propylamine compound” (Zhangzhou Pien Tze Huang Pharmaceutical Co., Ltd., priority 2020, dated 2025)
